Test results reported in patent publication US20030226169A1, “DNA sequences encoding antifungal proteins” (priority 1995, published 2003).

Key:
various fungi = conditions: on various fungi; cited from earlier work
yeast = conditions: at concentrations as high as 500 μg/ml; cited from earlier work
[1] = test system: Verticillium dahliae (MUCL 19210); assay: Antifungal growth inhibition microplate assay (photospectrometry); assay type: cell-based; conditions: Rs-AFP2 15-mer MPS peptides; one test; 96 hours
In short: (§1)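 Spores (2×10^4/ml) in half-strength potato dextrose broth exposed to test solution, incubated in the dark at room temperature for about 72 h (96 h for V. dahliae). Growth by OD595 minus 30-min reading; IC50 is 50% and MIC 100% growth inhibition.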

[2] = test system: Alternaria brassicicola (MUCL 20297); assay: as above; assay type: cell-based; conditions: Rs-AFP2 15-mer MPS peptides; one test
In short: as §1

[3] = test system: Botrytis cinerea (MUCL 30158); assay: as above; assay type: cell-based; conditions: Rs-AFP2 15-mer MPS peptides; one test
In short: as §1

[4] = test system: Fusarium culmorum (IMI 180420); assay: as above; assay type: cell-based
In short: as §1

[5] = test system: Ascophyta pisi (MUCL 30164); assay type: cell-based; conditions: Rs-AFP2 15-mer MPS peptides; one test
Experimental: The following fungal strains were used: Alternaria brassicicola (MUCL 20297), Ascophyta pisi (MUCL 30164), Botrytis cinerea (MUCL 30158), Fusarium culmorum (IMI 180420) and Verticillium dahliae (MUCL 19210).
Fungi were grown on six cereal agar plates at room temperature and under white fluorescent light except for F culmorum and V dahliae which were grown in the dark. The duration of the spore harvest varied between 10 and 25 days depending on the strain. Spores were collected as follows. Five to ten ml of sterile milli-Q water was poured into each dish and the surface of the agar was rubbed with a sterile spatula to obtain a suspension containing mycelium and spores. This suspension was filtered through a sterile glasswool-plugged funnel and the filtrate containing the spores was collected in a sterile polypropylene centrifuge tube. The A brassicicola spores were suspended in sterile 0.1 Tween 20 (Merk, 822184) due to their hydrophobic nature. The spore suspensions were then washed twice by centrifugation at 2,400×g for 15 minutes and resuspended in a small volume of steril milli-Q water. The spore density was determined in a counting chamber and then adjusted to 4×10^7 spores per ml. Aliquots of the spore suspension were transferred to sterile microtubes and an equal volume of sterile 50% glycerol (Merck, 4091) was added to each tube so that a final spore suspension of 2×10^7 spores per ml in 25% glycerol was obtained. After careful mixing of the stock, the spore suspension was transferred in 100 μl aliquots to sterile microtubes and stored at −80° C.
Antifungal activity was measured by photospectrometry as described by Broekaert et al, (1990, FEMS Microbiol Lett, 69:55-60). Tests were performed by adding 20 μl of test solution and 80 μl of a fungal spore suspension (2×10^4 spores/ml) per well in a sterile flat-bottom 96-well microtiterplate. The spore suspension was prepared by diluting the stock spore suspension ([…] in 25% glycerol) 1:1000 in half-strength potato dextrose broth. A positive growth control consisting of eight wells containing 20 μl of sterile milli-Q water and 80 μl of the fungal spore suspension was included in each test. The microtiterplates were incubated (with the lid on) in an aerated place at room temperature and under conditions of darkness for all test organisms.
After 30 minutes of incubation (when the spores are settled on the well bottom) the optical density was measured in a microplate reader (Bio Rad 3550-UV) at 595 nm. Incubation of the microtiterplates continued until the optical density of the control microculture was between 0.250 and 0.500, which took approximately 72 hours (96 hours for V dahliae). Percentage of growth inhibition (% GI) was estimated as 100 times the ratio of the corrected absorbance of the control microculture minus the corrected absorbance of the test microculture over the corrected absorbance of the control microculture at 595 nm. The corrected absorbance values equal the absorbance at 595 nm of the culture measured after 72 or 96 hours minus the absorbance at 595 nm measured after 30 minutes.
% GI=[(Acontrol−Atest/Acontrol]×100
where Acontrol=(A72/96h−A30min)control
The IC50 value is defined as the concentration that gives a 50% growth inhibition after 72 or 96 hours of incubation. The minimum inhibitory concentration (MIC) corresponds to the minimum concentration that gives 100% growth inhibition after 72 or 96 hours incubation.

[6] = Table 14: 18-, 19-, 20-mer peptides with C-terminal Phe49, duplo

Rs-AFP2: antifungal protein 2 (plant defensin) from radish (Raphanus sativus) seeds; positive control (QKLCQRPSGTWSGVCGNNNACKNQCIRLEKARHGSCNYVFPAHKCICYFPC; listed as Raphanus sativus)
activity relative to Rs-AFP1 (various fungi): two- to thirty-fold more active
adverse effects on yeast (yeast): does not have adverse effects
MIC VALUES V DAHLIAE [1]: 10 µg/mL
MIC VALUES A BRASSICICOLA [2]: 10 µg/mL
MIC VALUES B CINEREA [3]: >40 µg/mL
MIC VALUES F CULMORUM MPS ([4]; Rs-AFP2 15-mer MPS peptides, medium value of five tests): 5 to 10 µg/mL
MIC VALUES F CULMORUM Split ([4]; Rs-AFP2 15-mer split peptides (extra C-terminal beta-alanine), dilution 500-3.9 μg/ml, duplicate, MIC approximations): 10 µg/mL
MIC ([4]; Table 12: Rs-AFP2 15-mer peptides, ½ PDB): 3 µg/mL
MIC ([4]; Table 12: ½ PDB supplemented with 1 mM CaCl2): 6 µg/mL
MIC ([4]; Table 12: ½ PDB supplemented with 5 mM CaCl2): 6 µg/mL
MIC ([4]; Table 12: ½ PDB supplemented with 10 mM KCl): 3 µg/mL
MIC ([4]; Table 12: ½ PDB supplemented with 50 mM KCl): 3 µg/mL
MIC ([4]; Table 12: ½ PDB supplemented with 50 mM KCl, 1 mM CaCl2): 6 µg/mL
IC50 1/2 PDB ([4]; Table 13: linear β2-β3 loop MPS peptides, 2 × 10^4 spores/ml, duplo): 3.3 ± 0.0 µg/mL
IC50 SMF + pH5 ([4]; Table 13: linear β2-β3 loop MPS peptides, SMF+ (1 mM Ca2+, 50 mM K+) pH5, duplo): 5.2 ± 1.2 μg/ml
IC50 SMF + pH7 ([4]; Table 13: linear β2-β3 loop MPS peptides, SMF+ (1 mM Ca2+, 50 mM K+) pH7, duplo): 6.1 ± 1.3 μg/ml
IC50 SMF + pH5 [4, 6]: 7.2 ± 0.6 μg/ml
IC50 SMF + pH7 [4, 6]: 3.7 ± 0.6 μg/ml
IC50 ½ PDB ([4]; Table 14: 18-, 19-, 20-mer peptides with C-terminal Phe49, peptides single experiment): 2.5 ± 0.8 µg/mL
MIC VALUES A PISI [5]: 20 to 40 µg/mL
